Results: patent US4628115A, “Substituted 4-acetyl-3-hydroxyphenoxy alkanoic acids” (Hoffmann-La Roche Inc., priority 1985, dated 1986)
Like-named read-outs stand apart in the source and are kept apart here.

Tests used:
[1] = test system: SRS-A induced constriction of the guinea pig ileum; assay: Guinea Pig Ileum, In Vitro (SRS-A antagonism); assay type: cell-based; details: Cavia porcellus
Description: The guinea pig ileum bioassay system has been described by Orange and Austen, Adv. Immunol. […] A 1.5 cm segment is removed from animals weighing 300-400 g. and suspended in an organ bath containing 10 ml. of Tyrodes solution with 10^-6 M atropine sulfate and 10^-6 M pyrilamine maleate. […] The SRS-A utilized in this screen is obtained by challenging chopped lung fragments from actively sensitized guinea pigs with egg albumin, in vitro. A dose-response curve to SRS-A challenge is established for the ileum. […] The drug concentration which inhibits, by 50%, the SRS-A induced constriction of the guinea pig ileum is determined.

[2] = test system: leukotriene E4; assay: Guinea Pig Bronchoconstriction, In Vivo (leukotriene E4 i.v. challenge, drug i.v.); set-up: species or system guinea pig (Hartley strain, male); details: 10 mg/kg i.v., maximally constrictory dose of leukotriene E4 i.v.
Description: Male guinea pigs (Hartley strain) weighing 300 to 450 grams are anesthetized with urethane (2 g/Kg) intraperitoneally and a polyethylene cannula is inserted into the jugular vein for intravenous drug administration. Tracheal pressure is recorded from a cannula inserted in the trachea and connected to a Statham pressure transducer. Respiration is paralyzed with succinyl choline (1.2 mg/kg, i.v.) and the animals are mechanically respirated ([…] rodent respirator) at 40 breaths/minute and 2.5 cc tidal volume. The minutes thereafter, propranolol (0.1 mg/kg, i.v.) is administered. Five minutes later, the animals are pretreated intravenously for 30 seconds (at 10 mg/kg) with test drug or control vehicle. The animals are subsequently challenged with a maximally constrictory dose of leukotriene E4 also administered intravenously. The change (cm H2 O) between pre and peak ventilatory pressure readings is averaged calculated from the following formula: [formula]

[3] = test system: LTE4; assay: Aerosol Test (LTE4-induced bronchoconstriction, drug by inhalation); assay type: in vivo, guinea pig (Hartley strain, male); details: 1% (W/V) aerosol solution, five minute exposure, LTE4 i.v. challenge
Description: Male guinea pigs (Hartley strain) weighing 300 to 500 g are anesthetized with urethane (2 g/kg) intraperitoneally and a polyethylene cannula is inserted into the jugular vein for test compound administration. Tracheal pressure is recorded from a cannula inserted in the trachea and connected to a Statham pressure transducer. After surgical preparation of the animals, a period of time is allowed for pulmonary functions to stabilize. For testing purposes, drugs are administered according to the following protocol. Propranolol (0.1 mg/kg) is administered intravenously while the animals breathed spontaneously. Five minutes thereafter, the animals are exposed for a five minute period to a 1% (W/V) aerosol solution of test compound (adjusted to an alkaline pH where necessary for compound solubilization) or to distilled water of the appropriate pH (for control purposes). A Monaghan (Model 750) ultrasonic nebulizer is used to administer all compounds by inhalation. Aqueous solutions are prepared fresh and introduced into the chamber of the nebulizer. The output of the nebulizer is made available to the animal by directing a bias flow of aerosol through a y tube connected to the tracheal cannula. At the end of the exposure period, the animals are paralyzed with succinylcholine (1.2 mg/kg, i.v.) and mechanically respirated (Harvard rodent respirator) at 40 breaths/min and 2.5 cc tidal volume. […]

[4] = test system: LTE4; assay: Rat Skin Permeability, in Vivo (LTE4-induced wheal); details: 10 mg/kg i.v., LTE4 intradermal, 30 min, 5 animals
Description: In this model the ability of LTE4 to increase vascular permeability in rat skin was utilized. Anesthetized rats, pretreated for 30 minutes with an antihistamine, pyrilamine maleate, (50 mg/kg i.p.) and a serotonin antagonist, methylsergide maleate (4 mg/kg i.p.), were injected intradermally with a dose of LTE4 which gave a maximum wheal (in 0.05 ml saline). After introduction of test drug (at 10 mg/kg, i.v.) the animals were immediately treated intravenously with Evans blue dye i.v. (0.5%) in the tail vein resulting in the formation of a skin wheal. Thirty minutes later the animals were sacrificed and the skin wheal size was measured. The average response in 5 animals (4 intradermal injections per animal) treated with test compound was compared to that obtained in a similar group of control animals to determine the percent inhibition by the drug. A representative compound of the present invention, i.e., 6-(4-acetyl-3-hydroxy-2-propylphenoxy)hexanoic acid, caused a 35% reduction in skin wheal when tested at 10 mg/kg i.v.

[5] = guinea pig ileum, SRS-A challenge at EC50, 37° C., Table I, read-out: In vitro SRSA Antagonism Test, Guinea Pig Ileum IC50

| SMILES | IC50 [1, 5] | other results |
| --- | --- | --- |
| CCCc1c(OCCC(=O)O)ccc(C(C)=O)c1O [(CH2)2, 3-(4-Acetyl-3-hydroxy-2-propylphenoxy)propanoic acid] | 10 µM |  |
| CCCc1c(OCCCCCCC(=O)O)ccc(C(C)=O)c1O [(CH2)6, 7-(4-Acetyl-3-hydroxy-2-propylphenoxy)heptanoic acid] | 5 µM |  |
| CCCc1c(OCCCCC(=O)O)ccc(C(C)=O)c1O [(CH2)4, 5-(4-Acetyl-3-hydroxy-2-propylphenoxy)pentanoic acid] | 5 µM |  |
| CCCc1c(OCC(O)COc2ccc3c(=O)cc(C(=O)O)oc3c2CCC)ccc(C(C)=O)c1O (centres unmarked) [7-[3-(4-acetyl-3-hydroxy-2-propylphenoxy)-2-hydroxypropoxy]-4-oxo-8-propyl-4 H-1-benzopyran-2-carboxylic acid, reference compound] |  | inhibition of leukotriene E4 bronchoconstriction [2]: 98%; IC50 ([1]; read-out: IC50 (standard SRS-A antagonist)): 0.035 µM |
| CCCc1c(OCCOCCC(=O)O)ccc(C(C)=O)c1O [(CH2)2 O(CH2)2, 3-[2-(4-Acetyl-3-hydroxy-2-propylphenoxy)ethoxy]propanoic acid semihydrate] | 5 µM |  |
| CCCc1c(OCCCC#CC(=O)O)ccc(C(C)=O)c1O [(CH2)3 CC, 6-(4-Acetyl-3-hydroxy-2-propylphenoxy)-2-hexynoic acid] | 1 µM |  |
| CCCc1c(OCC#CCCCC(=O)O)ccc(C(C)=O)c1O [CH2 CC(CH2)3, 7-(4-Acetyl-3-hydroxy-2-propylphenoxy)-5-heptynoic acid] | 1 µM |  |
| CCCc1c(OCCCCCCCCCCC(=O)O)ccc(C(C)=O)c1O [(CH2)10, 11-(4-Acetyl-3-hydroxy-2-propylphenoxy)undecanoic acid] | 10 µM |  |
| CCCc1c(OCC(=O)O)ccc(C(C)=O)c1O [CH2, (4-Acetyl-3-hydroxy-2-propylphenoxy)acetic acid] | 10 µM |  |
| CCCc1c(OCCOCCOCCOCCC(=O)O)ccc(C(C)=O)c1O [(CH2)2 O(CH2)2 O(CH2)2 O(CH2)2, 3-[2-[2-[2-(4-Acetyl-3-hydroxy-2-propylphenoxy)ethoxy]ethoxy]ethoxy]propanoic acid semihydrate] | 6 µM |  |
| CCCc1c(OCCCCCC(=O)O)ccc(C(C)=O)c1O [(CH2)5, 6-(4-Acetyl-3-hydroxy-2-propylphenoxy)hexanoic acid] | 1 µM | inhibition of the bronchoconstriction [3]: 36%; reduction in skin wheal [4]: 35%; inhibition of leukotriene E4 bronchoconstriction [2]: 73% |
| CCCc1c(OCCCCCCCC(=O)O)ccc(C(C)=O)c1O [(CH2)7, 8-(4-Acetyl-3-hydroxy-2-propylphenoxy)octanoic acid] | 5 µM |  |
| CCCc1c(OCCCC(=O)O)ccc(C(C)=O)c1O [(CH2)3, 4-(4-Acetyl-3-hydroxy-2-propylphenoxy)butanoic acid] | 10 µM |  |
